# Laboratory results published in patent publication US20140243218A1, “COMPOSITION FOR DIAGNOSING OVARIAN CANCER METASTASIS USING CPG METHYLATION STATUS OF GENE PROMOTER AND USE THEREOF” (Ewha University - Industry Collaboration Foundation, priority 2013, published 2014).
# Tested on: SK-OV-3 cell line
# Assay: 5-aza-2′-deoxycytidine treatment of SK-OV-3 cell line, gene expression changes by qRT-PCR
# Assay type: cell-based, human
# Description: Human ovarian cancer cell line SK-OV-3 was purchased from American type culture collection (ATCC no. HTB-77) and cultured in a McCoy's 5a medium containing 10% FBS (fetal bovine serum), 100 U/mL penicillin and 100 μg/mL streptomycin.
# Total RNAs were extracted from SK-OV-3 cell line and the tumor tissues using an RNeasy mini kit (Qiagen), respectively. The extraction was performed according to manufacturer's instructions. The extracted total RNAs were quantified using a spectrophotometer, and RNA degradation was examined by electrophoresis in a 1% agarose gel.
# For cDNA synthesis, Superscript II reverse transcriptase (Invitrogen) was used. 1 μg of total RNA and 50 ng of oligo dT were denatured at 70° C. for 10 minutes, and then mixed with a reaction mixture containing 4 μl of 5×RT buffer, 2 μl of […], 4 μl of 2.5 mM dNTP mixture, 200 units of Superscript II reverse transcriptase and 10 units of RNase inhibitor to prepare 20 μl of the resulting reaction mixture, which was reacted at 25° C. for 10 minutes, at 42° C. for 50 minutes, and at 95° C. for 5 minutes to synthesize cDNA. This cDNA was diluted at 1:4, and 2 μl thereof was used as a template for qRT-PCR. In qRT-PCR, 20 μl of reaction mixture containing 2 μl of cDNA, 10 μl of SYBR Premix EX Taq (Takara Bio), 0.4 μl of Rox reference dye (50×, Takara Bio), and 200 nM of primers of each gene was reacted at 95° C. for 30 seconds, and then repeated for 40 cycles (at 95° C. for 3 seconds, and at 60° C. for 30 seconds) using an ABI 7500fast sequence detection system (Applied Biosystems) for amplification. The PCR products were reacted at 95° C. for 15 seconds, at 60° C. for 1 minute, and at 95° C. for 15 seconds to examine their specificity. 18S rRNA expression was used as an internal control, and expressions of AGR2, CA9, GABRP, IFITM1 and MUC13 genes were normalization using the 18S rRNA expression level by a ΔΔCT method. The sequences of the primers used are as follows.
# SK-OV-3 cell line was treated with a methylation inhibitor, 5-aza-2′-deoxycytidine (Sigma-Aldrich) at concentrations of 5 and 10 μM for 3 days, and then changes in AGR2, CA9, GABRP, IFITM1, and MUC13 gene expressions were measured by qRT-PCP.
# [1] = SK-OV-3 cells treated at 5 and 10 μM for 3 days, qRT-PCR normalized to 18S rRNA
smiles,measurement,setting,value
Nc1ncn([C@H]2C[C@H](O)[C@@H](CO)O2)c(=O)n1 [5-aza-2′-deoxycytidine],increase in AGR2 gene expression,[1],about 2 fold
same,increase in CA9 gene expression,[1],about 3.4 fold
same,increase in GABRP gene expression,[1],about 1.8 fold
same,increase in IFITM1 gene expression,[1],about 1.7 fold
same,increase in MUC13 gene expression,[1],17.8 fold
same,"changes in expressions of the five genes (AGR2, CA9, GABRP, IFITM1, and MUC13)","SK-OV-3 cells, treatment for 3 days, result in words",increased expressions of the above genes were observed
